# Results taken from PubChem BioAssay (NCI).
#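 Protocol summary: plate cells (96-well), add compound at 5 concentrations, incubate 48 h, interpolate endpoints linearly. GI50 marks 50% less growth. Definition used: TGI = concentration required for complete inhibition of growth.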
# Legend:
# Test in all cases: DTP human tumour cell line panel, 48 h
# SW-620 colon = test system: SW-620 colon
# A498 renal = test system: A498 renal
# SK-MEL-5 melanoma = test system: SK-MEL-5 melanoma
# SF-268 CNS = test system: SF-268 CNS
# CAKI-1 renal = test system: CAKI-1 renal
# SR leukemia = test system: SR leukemia
# HT29 colon = test system: HT29 colon
# M14 melanoma = test system: M14 melanoma
# HL-60(TB) leukemia = test system: HL-60(TB) leukemia
# NCI-H226 lung = test system: NCI-H226 lung
# NCI-H460 lung = test system: NCI-H460 lung
# COLO 205 colon = test system: COLO 205 colon
# MDA-MB-231 breast = test system: MDA-MB-231 breast
# SK-MEL-28 melanoma = test system: SK-MEL-28 melanoma
# NCI/ADR-RES ovarian = test system: NCI/ADR-RES ovarian
# OVCAR-4 ovarian = test system: OVCAR-4 ovarian
# HCT-116 colon = test system: HCT-116 colon
# HCT-15 colon = test system: HCT-15 colon
# SF-539 CNS = test system: SF-539 CNS
# LOX IMVI melanoma = test system: LOX IMVI melanoma
# CCRF-CEM leukemia = test system: CCRF-CEM leukemia
# SNB-19 CNS = test system: SNB-19 CNS
# SNB-75 CNS = test system: SNB-75 CNS
# HOP-92 NSCLC = test system: HOP-92 NSCLC
# DU-145 prostate = test system: DU-145 prostate
# NCI-H522 lung = test system: NCI-H522 lung
# SK-MEL-2 melanoma = test system: SK-MEL-2 melanoma
# UACC-257 melanoma = test system: UACC-257 melanoma
# SN12C renal = test system: SN12C renal
# OVCAR-3 ovarian = test system: OVCAR-3 ovarian
# OVCAR-8 ovarian = test system: OVCAR-8 ovarian
# PC-3 prostate = test system: PC-3 prostate
# EKVX NSCLC = test system: EKVX NSCLC
# T-47D breast = test system: T-47D breast
# RXF 393 renal = test system: RXF 393 renal
# SF-295 CNS = test system: SF-295 CNS
# NCI-H23 lung = test system: NCI-H23 lung
# HS 578T breast = test system: HS 578T breast
# OVCAR-5 ovarian = test system: OVCAR-5 ovarian
# UACC-62 melanoma = test system: UACC-62 melanoma
# TK-10 renal = test system: TK-10 renal
# IGROV1 ovarian = test system: IGROV1 ovarian
# ACHN renal = test system: ACHN renal
# HCC-2998 colon = test system: HCC-2998 colon
# MDA-MB-435 = test system: MDA-MB-435
# SK-OV-3 ovarian = test system: SK-OV-3 ovarian
# RPMI-8226 leukemia = test system: RPMI-8226 leukemia
# A549 NSCLC = test system: A549 NSCLC
# 786-0 renal = test system: 786-0 renal
# UO-31 renal = test system: UO-31 renal
# HOP-62 NSCLC = test system: HOP-62 NSCLC
# MALME-3M melanoma = test system: MALME-3M melanoma
# K-562 leukemia = test system: K-562 leukemia
# MCF7 breast = test system: MCF7 breast
# KM12 colon = test system: KM12 colon
# BT-549 breast = test system: BT-549 breast
# U251 CNS = test system: U251 CNS
structure (smiles),measurement,setting,value
CCCCCCCCCCCCCCCCNC(=O)OC(C)C,GI50,SW-620 colon,1.46 µM
same,TGI,SW-620 colon,2.87 µM
same,GI50,A498 renal,0.37 µM
same,TGI,A498 renal,5.95 µM
same,GI50,SK-MEL-5 melanoma,12.3 µM
same,TGI,SK-MEL-5 melanoma,27.8 µM
same,GI50,SF-268 CNS,2.73 µM
same,TGI,SF-268 CNS,8 µM
same,GI50,CAKI-1 renal,2.03 µM
same,TGI,CAKI-1 renal,4.75 µM
same,GI50,SR leukemia,1.56 µM
same,TGI,SR leukemia,5.01 µM
same,GI50,HT29 colon,1.65 µM
same,TGI,HT29 colon,3.12 µM
same,GI50,M14 melanoma,3.5 µM
same,TGI,M14 melanoma,14.4 µM
same,GI50,HL-60(TB) leukemia,2.01 µM
same,TGI,HL-60(TB) leukemia,5.56 µM
same,GI50,NCI-H226 lung,3.56 µM
same,TGI,NCI-H226 lung,14.1 µM
same,GI50,NCI-H460 lung,1.11 µM
same,TGI,NCI-H460 lung,2.46 µM
same,GI50,COLO 205 colon,1.95 µM
same,TGI,COLO 205 colon,3.61 µM
same,GI50,MDA-MB-231 breast,2.37 µM
same,TGI,MDA-MB-231 breast,5.41 µM
same,GI50,SK-MEL-28 melanoma,13.5 µM
same,TGI,SK-MEL-28 melanoma,27.1 µM
same,GI50,NCI/ADR-RES ovarian,3.34 µM
same,TGI,NCI/ADR-RES ovarian,13.6 µM
same,GI50,OVCAR-4 ovarian,2.01 µM
same,TGI,OVCAR-4 ovarian,4.37 µM
same,GI50,HCT-116 colon,1.96 µM
same,TGI,HCT-116 colon,4.17 µM
same,GI50,HCT-15 colon,2.35 µM
same,TGI,HCT-15 colon,6.79 µM
same,GI50,SF-539 CNS,5.15 µM
same,TGI,SF-539 CNS,12.7 µM
same,GI50,LOX IMVI melanoma,1.61 µM
same,TGI,LOX IMVI melanoma,2.97 µM
same,GI50,CCRF-CEM leukemia,2.31 µM
same,TGI,CCRF-CEM leukemia,6.2 µM
same,GI50,SNB-19 CNS,5.48 µM
same,TGI,SNB-19 CNS,16.3 µM
same,GI50,SNB-75 CNS,5.74 µM
same,TGI,SNB-75 CNS,18.1 µM
same,GI50,HOP-92 NSCLC,3.02 µM
same,TGI,HOP-92 NSCLC,13.7 µM
same,GI50,DU-145 prostate,1.81 µM
same,TGI,DU-145 prostate,3.41 µM
same,GI50,NCI-H522 lung,2.01 µM
same,TGI,NCI-H522 lung,4.62 µM
same,GI50,SK-MEL-2 melanoma,2.43 µM
same,TGI,SK-MEL-2 melanoma,6.15 µM
same,GI50,UACC-257 melanoma,13.2 µM
same,TGI,UACC-257 melanoma,28.8 µM
same,GI50,SN12C renal,4.53 µM
same,TGI,SN12C renal,17 µM
same,GI50,OVCAR-3 ovarian,1.99 µM
same,TGI,OVCAR-3 ovarian,3.89 µM
same,GI50,OVCAR-8 ovarian,3.82 µM
same,TGI,OVCAR-8 ovarian,18 µM
same,GI50,PC-3 prostate,2.45 µM
same,TGI,PC-3 prostate,7.53 µM
same,GI50,EKVX NSCLC,2.35 µM
same,TGI,EKVX NSCLC,6.44 µM
same,GI50,T-47D breast,3.79 µM
same,TGI,T-47D breast,12.6 µM
same,GI50,RXF 393 renal,8.07 µM
same,TGI,RXF 393 renal,26.6 µM
same,GI50,SF-295 CNS,2.11 µM
same,TGI,SF-295 CNS,5.81 µM
same,GI50,NCI-H23 lung,3.04 µM
same,TGI,NCI-H23 lung,10.3 µM
same,GI50,HS 578T breast,2.19 µM
same,TGI,HS 578T breast,16.5 µM
same,GI50,OVCAR-5 ovarian,2.81 µM
same,TGI,OVCAR-5 ovarian,8.39 µM
same,GI50,UACC-62 melanoma,6.04 µM
same,TGI,UACC-62 melanoma,19 µM
same,GI50,TK-10 renal,2.09 µM
same,TGI,TK-10 renal,4.48 µM
same,GI50,IGROV1 ovarian,2.27 µM
same,TGI,IGROV1 ovarian,5 µM
same,GI50,ACHN renal,2.16 µM
same,TGI,ACHN renal,5.24 µM
same,GI50,HCC-2998 colon,2.56 µM
same,TGI,HCC-2998 colon,6.22 µM
same,GI50,MDA-MB-435,2.55 µM
same,TGI,MDA-MB-435,6.93 µM
same,GI50,SK-OV-3 ovarian,5.7 µM
same,TGI,SK-OV-3 ovarian,14.3 µM
same,GI50,RPMI-8226 leukemia,5.22 µM
same,TGI,RPMI-8226 leukemia,40.8 µM
same,GI50,A549 NSCLC,1.95 µM
same,TGI,A549 NSCLC,3.82 µM
same,GI50,786-0 renal,9.38 µM
same,TGI,786-0 renal,29.4 µM
same,GI50,UO-31 renal,1.54 µM
same,TGI,UO-31 renal,3.38 µM
same,GI50,HOP-62 NSCLC,5.11 µM
same,TGI,HOP-62 NSCLC,11.2 µM
same,GI50,MALME-3M melanoma,2.89 µM
same,TGI,MALME-3M melanoma,9.24 µM
same,GI50,K-562 leukemia,2.14 µM
same,TGI,K-562 leukemia,5.86 µM
same,GI50,MCF7 breast,1.88 µM
same,TGI,MCF7 breast,3.53 µM
same,GI50,KM12 colon,1.83 µM
same,TGI,KM12 colon,3.5 µM
same,GI50,BT-549 breast,21.9 µM
same,TGI,BT-549 breast,55.9 µM
same,GI50,U251 CNS,1.96 µM
same,TGI,U251 CNS,3.67 µM
